Source: publication PMC9206686, “Expression, characterization, and activity optimization of a novel cellulase from the thermophilic bacteria Cohnella sp. A01” (Scientific Reports, 2022)

Biological target: T1, CelC307 (Cohnella sp. A01, UniProt A0A6C0R5L1)
T1 construct: Ni-NTA or heat-shock purified; GH5 domain predicted 77-362; primers imply N-terminus MGDLERL, C-terminus HAGAR before tag
T1 sequence (A0A6C0R5L1 1-491): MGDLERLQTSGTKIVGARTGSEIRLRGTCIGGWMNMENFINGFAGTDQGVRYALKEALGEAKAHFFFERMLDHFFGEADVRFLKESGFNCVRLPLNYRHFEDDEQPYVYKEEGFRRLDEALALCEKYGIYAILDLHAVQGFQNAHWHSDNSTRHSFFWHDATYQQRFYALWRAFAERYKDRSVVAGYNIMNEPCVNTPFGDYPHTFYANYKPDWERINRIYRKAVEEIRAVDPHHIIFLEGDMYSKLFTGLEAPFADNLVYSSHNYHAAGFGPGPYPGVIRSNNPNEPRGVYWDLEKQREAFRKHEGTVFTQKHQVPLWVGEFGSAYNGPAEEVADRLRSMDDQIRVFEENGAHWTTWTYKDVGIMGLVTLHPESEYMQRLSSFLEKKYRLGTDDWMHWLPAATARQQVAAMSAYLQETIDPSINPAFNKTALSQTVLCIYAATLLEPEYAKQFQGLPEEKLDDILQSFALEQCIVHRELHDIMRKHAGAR
Assay: DNS reducing-sugar assay, Lineweaver-Burk
Format: biochemical
Conditions: inhibitor, CMC substrate; […] inhibitor, pH […] °C

| SMILES | inhibition mode (mixed-type) | inhibition mode (non-competitive) |
| --- | --- | --- |
| OCC1(O)OC[C@@H](O)[C@@H](O)[C@@H]1O (stereo partly drawn) [fructose] | the fructose and lactose exhibited the mixed-type inhibition mode |  |
| OC[C@H]1O[C@@H](O[C@H]2[C@H](O)[C@@H](O)C(O)O[C@@H]2CO)[C@H](O)[C@@H](O)[C@H]1O (stereo partly drawn) [lactose] | the fructose and lactose exhibited the mixed-type inhibition mode |  |
| OC[C@H]1O[C@H](O[C@H]2[C@H](O)[C@@H](O)C(O)O[C@@H]2CO)[C@H](O)[C@@H](O)[C@@H]1O (stereo partly drawn) [maltose] |  | the inhibition mode of maltose was non-competitive because the Vmax was reduced |
